Source: PubChem BioAssay (NCI)
“And” between values parts separate entries of the source, which are not always exact repeats. Identical values can stand only once.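 Compound exposure: 48 hours, 5 concentrations, 96-well plates. Here, GI50 denotes the concentration required for 50% inhibition of growth. The concentration for full growth arrest is given as TGI.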 Where a SMILES comes first, the peptide text is derived from it. [ ]: non-standard residue; d: D form. The star is where a group is joined. Phe(4-NO2) = N[CH](Cc1ccc([N+](=O)[O-])cc1)C(=O)O; Boc = CC(C)(C)OC(=O)*

Assays:
Experiment in all cases: growth of human tumour cells (NCI), 48 h
LOX IMVI melanoma = system: LOX IMVI melanoma
MALME-3M melanoma = system: MALME-3M melanoma
OVCAR-8 ovarian = system: OVCAR-8 ovarian
SK-MEL-28 melanoma = system: SK-MEL-28 melanoma
TK-10 renal = system: TK-10 renal
HCC-2998 colon = system: HCC-2998 colon
CCRF-CEM leukemia = system: CCRF-CEM leukemia
CAKI-1 renal = system: CAKI-1 renal
OVCAR-5 ovarian = system: OVCAR-5 ovarian
UACC-62 melanoma = system: UACC-62 melanoma

SMILES: O=C1C(N2CCN(CCOCCO)CC2)=C(Cl)C(=O)c2ncccc21
- TGI (LOX IMVI melanoma): 26.7 µM
- GI50 (MALME-3M melanoma): 19.3 µM
- TGI (MALME-3M melanoma): 33.8 µM
- TGI (OVCAR-8 ovarian): 39.4 µM
- TGI (SK-MEL-28 melanoma): 43.7 µM
- TGI (TK-10 renal): 48.5 µM
- GI50 (HCC-2998 colon): > 100 µM
- TGI (HCC-2998 colon): > 100 µM
- GI50 (CCRF-CEM leukemia): 13.5 µM
- TGI (CCRF-CEM leukemia): 4.44 µM and 35.9 µM
- TGI (CAKI-1 renal): 31.8 µM
- TGI (OVCAR-5 ovarian): 57.1 µM
- TGI (UACC-62 melanoma): 43.8 µM

SMILES: O=C1N2CCC[C@H]2CS1(=O)=O
- TGI (LOX IMVI melanoma): 27.3 µM
- TGI (MALME-3M melanoma): 28.3 µM
- TGI (OVCAR-8 ovarian): 55.1 µM
- TGI (SK-MEL-28 melanoma): 41.2 µM
- TGI (TK-10 renal): 32.2 µM
- TGI (HCC-2998 colon): 32.2 µM
- TGI (CCRF-CEM leukemia): 7.1 µM
- TGI (CAKI-1 renal): 18.2 µM
- TGI (OVCAR-5 ovarian): 93.7 µM
- TGI (UACC-62 melanoma): 30 µM

SMILES: Cc1c(OCc2cccc3ccccc23)ccc2c(=O)cc(SCCN3CCOCC3)oc12
- TGI (LOX IMVI melanoma): > 100 µM
- TGI (OVCAR-8 ovarian): > 100 µM
- TGI (SK-MEL-28 melanoma): > 100 µM
- TGI (TK-10 renal): > 100 µM
- TGI (HCC-2998 colon): > 100 µM
- TGI (CCRF-CEM leukemia): > 100 µM
- TGI (CAKI-1 renal): > 100 µM
- TGI (OVCAR-5 ovarian): > 100 µM
- TGI (UACC-62 melanoma): > 100 µM

SMILES: O=c1[nH]cc(N=Cc2cc(Cl)ccc2O)c(=O)[nH]1
- TGI (MALME-3M melanoma): 73.8 µM
- TGI (OVCAR-8 ovarian): 76.9 µM
- TGI (SK-MEL-28 melanoma): 70.1 µM
- TGI (TK-10 renal): > 100 µM
- TGI (HCC-2998 colon): > 100 µM
- TGI (CCRF-CEM leukemia): 19 µM
- TGI (CAKI-1 renal): > 100 µM
- TGI (OVCAR-5 ovarian): > 100 µM
- TGI (UACC-62 melanoma): 71.7 µM

SMILES: O=c1cc(-c2ccccc2)oc2c1ccc1[nH]c3ccccc3c(=O)c12
- TGI (LOX IMVI melanoma): 34.9 µM
- TGI (MALME-3M melanoma): > 100 µM
- TGI (OVCAR-8 ovarian): > 100 µM
- TGI (SK-MEL-28 melanoma): > 100 µM
- TGI (TK-10 renal): > 100 µM
- TGI (HCC-2998 colon): > 100 µM
- TGI (CCRF-CEM leukemia): > 100 µM
- TGI (CAKI-1 renal): > 100 µM
- TGI (OVCAR-5 ovarian): > 100 µM
- TGI (UACC-62 melanoma): > 100 µM

SMILES: O=c1c2ccccc2nc(N/N=C/c2ccc([N+](=O)[O-])cc2)n1-c1ccccc1
- TGI (LOX IMVI melanoma): > 100 µM
- TGI (MALME-3M melanoma): > 100 µM
- TGI (OVCAR-8 ovarian): > 100 µM
- TGI (SK-MEL-28 melanoma): 30.1 µM
- TGI (TK-10 renal): 56.3 µM
- TGI (CCRF-CEM leukemia): > 100 µM
- TGI (CAKI-1 renal): 49.4 µM
- TGI (OVCAR-5 ovarian): > 100 µM
- TGI (UACC-62 melanoma): > 100 µM

SMILES: O=C1c2ccccc2C2(c3ccc(F)cc3)NCCN12 (stereo not drawn)
- TGI (MALME-3M melanoma): > 100 µM
- TGI (OVCAR-8 ovarian): > 100 µM
- TGI (SK-MEL-28 melanoma): > 100 µM
- TGI (TK-10 renal): > 100 µM
- TGI (HCC-2998 colon): > 100 µM
- TGI (CCRF-CEM leukemia): > 100 µM
- TGI (CAKI-1 renal): > 100 µM
- TGI (OVCAR-5 ovarian): > 100 µM
- TGI (UACC-62 melanoma): > 100 µM

SMILES: Cc1cc(C)nc(NS(=O)(=O)c2ccc(NNc3c4ccccc4nc4c(C(=O)Nc5ccc(S(=O)(=O)Nc6cc(C)on6)cc5)cccc34)cc2)n1
- TGI (LOX IMVI melanoma): 88.8 µM
- TGI (MALME-3M melanoma): > 100 µM
- TGI (OVCAR-8 ovarian): > 100 µM
- TGI (TK-10 renal): > 100 µM
- TGI (HCC-2998 colon): 50.2 µM
- TGI (CCRF-CEM leukemia): 63.5 µM
- TGI (CAKI-1 renal): > 100 µM
- TGI (OVCAR-5 ovarian): > 100 µM
- TGI (UACC-62 melanoma): > 100 µM

SMILES: COC(=O)c1c2c(cc3c1CC1(Cc4cc5c(c(C)c4C1)CCC5)C3)CCC2 (stereo not drawn)
- TGI (LOX IMVI melanoma): > 100 µM
- TGI (MALME-3M melanoma): > 100 µM
- TGI (OVCAR-8 ovarian): > 100 µM
- TGI (SK-MEL-28 melanoma): > 100 µM
- TGI (TK-10 renal): > 100 µM
- TGI (HCC-2998 colon): > 100 µM
- TGI (CCRF-CEM leukemia): > 100 µM
- TGI (CAKI-1 renal): > 100 µM
- TGI (OVCAR-5 ovarian): > 100 µM

SMILES: CCOC(=O)CCC(NC(=O)C(Cc1ccc([N+](=O)[O-])cc1)NC(=O)OC(C)(C)C)C(=O)NC(CCC(=O)OCC)C(=O)OCC (stereo not drawn) (Boc-[Phe(4-NO2)]-Glu(OEt)-Glu(OEt)-OEt; configuration not given here)
- TGI (MALME-3M melanoma): 35 µM
- TGI (OVCAR-8 ovarian): 40.3 µM
- TGI (SK-MEL-28 melanoma): 32.1 µM
- TGI (TK-10 renal): 30.1 µM
- TGI (HCC-2998 colon): 30.9 µM
- TGI (OVCAR-5 ovarian): 46.3 µM
- TGI (UACC-62 melanoma): 32.4 µM

SMILES: Cc1nc(C)c(N2CCN(CN)CC2)c(=O)[nH]1
- TGI (LOX IMVI melanoma): > 100 µM
- TGI (MALME-3M melanoma): > 100 µM
- TGI (OVCAR-8 ovarian): > 100 µM
- TGI (SK-MEL-28 melanoma): > 100 µM
- TGI (TK-10 renal): > 100 µM
- TGI (HCC-2998 colon): > 100 µM
- TGI (CCRF-CEM leukemia): > 100 µM
- TGI (CAKI-1 renal): > 100 µM
- TGI (UACC-62 melanoma): > 100 µM
